Assay results from US20230404987A1, “METHOD OF TREATING BREAST CANCER” (Eisai R&D Management Co., Ltd., priority 2020, published 2023).
Several values for one entry are separate records, joined by “and”; a condition that tells them apart may be missing. Equal values may be shown once.

Legend:
[1] = system: women with locally advanced or metastatic ER+, HER2-negative breast cancer; test: Phase 1/2 study of Compound 1 QD PO: safety (DLT, adverse events); format: in vivo, human
Description: (§1) Compound 1 was tested in a first-in-human, Phase 1/2 study in women with locally advanced or metastatic ER+, HER2-negative breast cancer. In this multicenter study, women with locally advanced or metastatic ER+, HER2− breast cancer were treated with Compound 1 administered QD, PO over a 28-day cycle after progression on at least 1 hormonal therapy and at least 1 additional therapy/regimen.
(§2) The primary objective of the Phase 1 was to determine the MTD and RP2D in pretreated subjects with ER+, HER2−metastatic breast cancer. Secondary objectives included safety and antitumor activity. The primary objective of the Phase 2 was to estimate the efficacy of this agent in terms of objective response rate (ORR), clinical benefit rate (CBR), and progression-free survival (PFS). Secondary objectives included safety. The trial was designed to exclude a lower limit of ORR of 5% at one-sided level of significance of 0.05 and a power of 90%.
The Phase 1 part evaluated once daily doses from 100 to 600 mg. […] Consequently, the dose of 450 mg was selected as the RP2D.

[2] = system: PDX breast cancer models, including those with mutated ESR1; conditions: multiple PDX breast cancer models; cited from earlier work
[3] = system: locally advanced or metastatic ER+, HER2-negative breast cancer; test: Phase 1/2 study of Compound 1 QD PO: antitumor efficacy (best overall response, CBR, PFS); format: in vivo, human; conditions: for Confirmed partial responses / Clinical benefit rate (≥23 weeks) / Stable disease (SD) rate: response-evaluable subjects; for mPFS: started on 450 mg; for Median PFS: full analysis set; for Progression free survival, median (95% CI): FIG. 4, Example 3; for Progression free survival, median (95%): FIG. 3, Example 3
Description: as §1, §2
Over 30 months, 130 patients were enrolled; 47 in the Phase 1 part and 83 in the Phase 2 part of the trial. A total of 105 subjects, including 73 subjects on 450 mg were response-evaluable.
Experiments conducted subsequent to those reported in Example 1 were directed to identify the parameters driving the activity of Compound 1 in the trial population. Two parameters were of particular interest: 1) PgR status, and 2) ESR1 mutant type and allele frequency. PFS was used in these analyses because it is a continuous variable. […] The effect of baseline circulating ESR1, of particular ESR1 mutants and their allele frequency was unknown.
The effect of PgR positivity and the detection prior to treatment of ESR1 mutations Y537S and D538G on median PFS was then investigated using the Kaplan-Meier method. The effect of ESR1 clonality was also investigated since the presence of simultaneous clones of ESR1 mutations likely indicates very advanced or complex disease. Of note, the allele frequencies of the different ESR1 mutants were not identical, indicating the presence of multiple clones in a tumor, rather than multiple mutations in the same tumor ESR1 gene. For the purpose of these analyses, clonal Y537S was defined as ESR1 Y537S mutation detected in a pre-treatment whole blood sample at a mutant allele frequency (MAF)≥0.5% with a MAF for D538G<0.5%. Conversely, clonal D538G was defined as ESR1 D538G mutation detected in a pre-treatment whole blood sample at a MAF≥0.5% with a MAF for Y537S<0.5%.
Following data analysis described above, patients remained in the Phase 2 study reported in Example 1, and clinical data collection continued. The primary objective of this study was to estimate the efficacy of Compound 1 in terms of best overall response rate (ORR), duration of response (DoR), clinical benefit rate, and progression-free survival (PFS) in all subjects and in those with and without ERα mutation (ERαMUT).
83 patients were treated with 450 mg in the Phase 2 study of Example 1. Additionally, 11 patients who were treated with 450 mg in the Phase 1 part of the trial (also discussed in Example 1) have been grouped with these 83 Phase 2 patients for discussion in this example. […] Patients were heavily pretreated, and 85% of the patients received prior CDK4/6 inhibitors.

[4] = 450 mg, N = 72, response-evaluable set, Example 3
[5] = 450 mg, N = 73, response evaluable set, Example 1
[6] = 10 patients with clonal ESR1 Y537S, 450 mg, Example 3
[7] = Clonal D538G (N = 17), 450 mg, Example 3
[8] = Clonal Y537S (N = 10), 450 mg, Example 3
[9] = Clonal Y537S or Clonal D538G (N = 27), 450 mg, Example 3
[10] = Polyclonal Y537S and D538G (N = 2), 450 mg, Example 3
[11] = Y537S and D538G Negatives (N = 43), 450 mg, Example 3
[12] = all doses, N = 105, response evaluable set, Example 1

## CN(C)C(=O)/C=C/CNCCOc1ccc(/C(=C(/CC(F)(F)F)c2ccccc2)c2ccc3[nH]nc(F)c3c2)cn1 [Compound 1]
[1]; 600 mg cohort, in 2 of 7 subjects (Grade 3 fatigue and Grade 3 drug eruption)
  Dose-limiting toxicities (DLTs) observed: 2 DLTs
[1]; Phase 1, once daily doses up to 450 mg
  Dose-limiting toxicities (DLTs): No dose-limiting toxicities
[1]; in vivo
  Grade 1 sinus bradycardia (asymptomatic): 35%
  Grade 2 QTcF prolongation: 2 subjects
  Grade 2 sinus bradycardia (symptomatic, no intervention needed): 4%
  Grade 3 QTcF prolongation: 3 subjects
  Treatment-related deaths: no treatment-related deaths
[1]; once daily, PO
  RP2D (recommended phase 2 dose): 450 mg
[1]; serum bilirubin, urinary tract obstruction, hyponatremia, all considered related to disease progression
  Grade 4 AE: Three
[1]; subjects, all doses
  Grade 2 or higher adverse event: AST increase: 11%
  Grade 2 or higher adverse event: anemia: 20%
  Grade 2 or higher adverse event: diarrhea: 11%
  Grade 2 or higher adverse event: fatigue: 16%
  Grade 2 or higher adverse event: nausea: 14%
[2]
  Antitumor activity: significant antitumor activity
[3]; 450 mg dose, 90% confidence limits 8.7%-23.7
  Confirmed partial responses: 15%
[3]; 450 mg starters with clonal ESR1 Y537S or clonal D538G mutations, Example 2
  Median PFS (Kaplan-Meier): 5.5 months
[3]; 450 mg, N = 72, Example 3
  Median time to response (min, max): 2.7 (1.6, 5.5) mo
[3]; 450 mg, N = 72, Example 3, descriptive median
  Median duration of response (min, max): 7.5 (3.5, 16.6) mo
[3]; [4]
  Best overall response: Complete response: 0 n (%)
  Best overall response: Confirmed partial response: 12 (17) n (%)
  Best overall response: Not evaluable: 2 (3) n (%)
  Best overall response: Progressive disease: 27 (38) n (%)
  Best overall response: Stable disease: 31 (43) n (%)
  Clinical benefit rate (CR + PR + SD ≥ 23 weeks): 29 (40) n (%)
  ORR (95% confidence interval): 17 (9, 27) %
[3]; [5]
  Best overall response: Complete response (CR): 0 N (%)
  Best overall response: Confirmed partial response (PR): 11 (15) N (%)
  Best overall response: Not evaluable: 3 (4) N (%)
  Best overall response: Progressive disease (PD): 26 (36) N (%)
  Clinical benefit rate (CR + PR + SD lasting for ≥23 weeks): 24 (33) N (%)
[3]; 450 mg
  Clinical benefit rate (≥23 weeks): 33%
  Stable disease (SD) rate: 45%
[3]; [6]
  Partial responses: 30%
  Stable disease: 40%
[3]; All subjects, PgR negative, N=34
  mPFS: 2.1 months
[3]; All subjects, PgR positive, N=38
  mPFS: 5.5 months
[3]; [7]
  Clinical benefit rate: 6 (35) n (%)
  Complete response: 0 n (%)
  Confirmed partial response: 0 n (%)
  Not evaluable: 0 n (%)
  Progressive disease: 7 (41) n (%)
  Stable disease: 10 (59) n (%)
[3]; Clonal D538G, 450 mg, Example 3
  Median PFS: 5.4 mo
[3]; Clonal D538G, N=19, 13 events
  Progression free survival, median (95% CI): 5.4 (1.7, 7.2) months
[3]; Clonal D538G, PgR negative, N=3
  mPFS: 1.7 months
[3]; Clonal D538G, PgR positive (≥1%), N=10
  mPFS: 4.5 months
[3]; [8]
  Clinical benefit rate: 6 (60) n (%)
  Complete response: 0 n (%)
  Confirmed partial response: 3 (30) n (%)
  Not evaluable: 0 n (%)
  Progressive disease: 3 (30) n (%)
  Stable disease: 4 (40) n (%)
[3]; Clonal Y537S + Clonal D538G (combined data), PgR negative, N=3
  mPFS: 1.7 months
[3]; Clonal Y537S + Clonal D538G (combined data), PgR positive, N=16
  mPFS: 7.2 months
[3]; [9]
  Clinical benefit rate: 12 (44) n (%)
  Complete response: 0 n (%)
  Confirmed partial response: 3 (11) n (%)
  Not evaluable: 0 n (%)
  Progressive disease: 10 (37) n (%)
  Stable disease: 14 (52) n (%)
[3]; Clonal Y537S or Clonal D538G, 450 mg, Example 3
  Median PFS: 5.4 mo
[3]; Clonal Y537S, 450 mg, Example 3
  Median PFS: 7.3 mo
[3]; Clonal Y537S, N=10, 8 events
  Progression free survival, median (95% CI): 7.3 (0.8, 11.2) months and 7.3 months
[3]; Clonal Y537S, PgR positive (≥1%), N=6
  mPFS: 13.0 months
[3]; PgR Negative (≤1% positive cells), N=34, 20 events
  Progression free survival, median (95%): 2.1 (1.7, 7.4) months
[3]; PgR Positive (≥1% positive cells), N=38, 24 events
  Progression free survival, median (95%): 5.4 (2.0, 8.8) months
[3]; [10]
  Clinical benefit rate: 1 (50) n (%)
  Complete response: 0 n (%)
  Confirmed partial response: 0 n (%)
  Not evaluable: 0 n (%)
  Progressive disease: 1 (50) n (%)
  Stable disease: 1 (50) n (%)
[3]; Polyclonal Y537S and D538G, 450 mg, Example 3
  Median PFS: 3.5 mo
[3]; Polyclonal Y537S and D538G, N=4, 3 events
  Progression free survival, median (95% CI): 3.5 (1.7, 5.4) months
[3]; Polyclonal, PgR positive, N=3
  mPFS: 2.6 months
[3]; [11]
  Clinical benefit rate: 16 (37) n (%)
  Complete response: 0 n (%)
  Confirmed partial response: 9 (21) n (%)
  Not evaluable: 2 (5) n (%)
  Progressive disease: 16 (37) n (%)
  Stable disease: 16 (37) n (%)
[3]; Y537S and D538G Negatives, 450 mg, Example 3
  Median PFS: 3.8 mo
[3]; Y537S and D538G negatives, N=61, 33 events
  Progression free survival, median (95% CI): 3.8 (2.0, 7.3) months
[3]; Y537S/D538G absent, PgR negative, N=31
  mPFS: 2.1 months
[3]; Y537S/D538G absent, PgR positive, N=19
  mPFS: 3.8 months
[3]; all 94 patients treated with 450 mg, Example 3
  Median progression free survival: 5.1 months
[3]; [12]
  Best overall response: Complete response (CR): 0 N (%)
  Best overall response: Confirmed partial response (PR): 13 (12) N (%)
  Best overall response: Not evaluable: 7 (7) N (%)
  Best overall response: Progressive disease (PD): 37 (35) N (%)
  Clinical benefit rate (CR + PR + SD lasting for ≥23 weeks): 36 (34) N (%)
[3]; all doses
  Clinical benefit rate (≥23 weeks): 34%
  Stable disease (SD) rate: 46%
[3]; all doses, 90% confidence limits 7.5%-19%
  Confirmed partial responses: 12%
[3]; monotherapy, once daily 450 mg, heavily pretreated ER+, HER2−, metastatic breast cancer patients
  Anti-tumor activity (conclusion): demonstrated anti-tumor activity
[3]; subjects who started at the 450 mg dose, 95% CI 3.2-6.2, Examples 1 and 2
  Median PFS (Kaplan-Meier): 3.8 months
